# Source: US8927559B2, “Quinazolinone-type compounds as CRTH2 antagonists” (Merck Sharp & Dohme Corp., priority 2010, dated 2015)
# pKi: −log10 of the molar value. “And” between values parts separate entries of the source, which are not always exact repeats. Identical values can stand only once.
# Target: T1, CRTH2 receptor (hCRTH2) (Homo sapiens, UniProt Q9Y5Y4)
# T1 construct: expressed in transfected cells; host or cells: HEK cells (HEK-hCRTH2 cell line), membranes
# T1 sequence (Q9Y5Y4 1-395): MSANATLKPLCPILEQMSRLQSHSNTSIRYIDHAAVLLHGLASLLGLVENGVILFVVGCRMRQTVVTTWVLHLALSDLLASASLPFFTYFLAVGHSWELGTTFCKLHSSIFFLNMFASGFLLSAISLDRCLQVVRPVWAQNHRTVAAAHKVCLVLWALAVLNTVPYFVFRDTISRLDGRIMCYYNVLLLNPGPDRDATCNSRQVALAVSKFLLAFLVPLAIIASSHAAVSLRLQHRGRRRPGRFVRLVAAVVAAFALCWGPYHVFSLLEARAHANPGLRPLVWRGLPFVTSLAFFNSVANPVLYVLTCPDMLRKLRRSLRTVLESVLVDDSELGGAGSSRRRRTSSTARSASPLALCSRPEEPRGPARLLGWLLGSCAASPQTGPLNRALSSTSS
# Experiment: Radioligand binding assay ([3H]PGD2 competition, membranes of HEK-hCRTH2 cell line)
# Details: 3.0 nM [3H]PGD2, HEK-hCRTH2 membranes, 60 min, room temperature; read-out: Ki
# Experimental: Competing ligands were diluted in dimethylsulfoxide (Me2SO) that was kept constant at 1% (v/v) of the final incubation volume. The reaction was initiated by the addition of 8-20 μg of membrane protein prepared from a HEK-hCRTH2 cell line. Total and non-specific binding were determined in the absence and the presence of […] PGD2, respectively. […] The reaction was routinely conducted for 60 min at room temperature and terminated by rapid filtration through prewetted (0.3% polyethyleneimine) 96-well printed filtermate (Wallac) using a Tomtec harvester. After washing with cold buffer, the filter was dried for 2 minutes in microwave, and Meltilex Scintillator sheet (Wallac) was melted on for 2 min.
row,Compound,pKi
1,O=C(O)CCCCc1nc2cc(-c3cc(CNS(=O)(=O)c4ccc(Cl)cc4)on3)ccc2c(=O)n1-c1ccc(F)cc1 [Example 24o],≥ 8.00
2,"O=C(O)CCCCc1nc2cc(-c3cc(Cc4ccc(F)cc4)on3)ccc2c(=O)n1-c1ccc(F)cc1 [Example 25, 5-(7-(5-(4-fluorobenzyl)isoxazol-3-yl)-3-(4-fluorophenyl)-4-oxo-3,4-dihydroquinazolin-2-yl)pentanoic acid]",≥ 8.00 and 9.00
3,O=C(O)CCCCc1nc2cc(-c3cc([C@H](O)c4ccc(F)cc4)on3)ccc2c(=O)n1-c1ccc(F)cc1 [Example 25C],≥ 8.00
4,O=C(O)CCCCc1nc2cc(-c3cc([C@@H](O)c4ccc(F)cc4)on3)ccc2c(=O)n1-c1ccccc1 [Example 25D],≥ 8.00
5,O=C(O)CCCCc1nc2cc(-c3cc([C@H](O)c4ccc(F)cc4)on3)ccc2c(=O)n1-c1ccccc1 [Example 25E],≥ 8.00
6,O=C(O)CCCCc1nc2cc(-c3cc(Cc4ccc(F)cc4)on3)ccc2c(=O)n1-c1ccccc1 [Example 25F],≥ 8.00
7,O=C(O)CCCCc1nc2cc(-c3cc(C(O)c4ccc5ccccc5n4)on3)ccc2c(=O)n1-c1ccc(F)cc1 (stereo not shown) [Example 25G],≥ 8.00
8,O=C(O)CCCCc1nc2cc(-c3cc(C(O)c4ccc5ccccc5n4)on3)ccc2c(=O)n1-c1ccc(F)cc1 (stereo not shown) [Example 25H],7.30 to 8.00
9,O=C(O)CCCCc1nc2cc(-c3cc(Cc4ccc5ccccc5c4)on3)ccc2c(=O)n1-c1ccc(F)cc1 [Example 25J],≥ 8.00
10,O=C(O)CCCCc1nc2cc(-c3cc(Cc4cnc5ccccc5n4)on3)ccc2c(=O)n1-c1ccc(F)cc1 [Example 25L],≥ 8.00
11,O=C(O)CCCCc1nc2cc(-c3cc(C(O)c4ccc5ccccc5c4)on3)ccc2c(=O)n1-c1ccc(F)cc1 (stereo not shown) [Example 25i],≥ 8.00
12,"C[C@@]1(Cc2ccccc2)CC(c2ccc3c(=O)n(-c4ccc(F)cc4)c(CCCCC(=O)O)nc3c2)=NO1 [Example 26, (R)-5-(7-(5-benzyl-5-methyl-4,5-dihydroisoxazol-3-yl)-3-(4-fluorophenyl)-4-oxo-3,4-dihydroquinazolin-2-yl)pentanoic acid]",≥ 8.00 and 8.13
13,C[C@@]1([C@@H](O)c2ccccc2)CC(c2ccc3c(=O)n(-c4ccc(F)cc4)c(CCCCC(=O)O)nc3c2)=NO1 [Example 26C],7.30 to 8.00
14,C[C@]1([C@@H](O)c2ccccc2)CC(c2ccc3c(=O)n(-c4ccc(F)cc4)c(CCCCC(=O)O)nc3c2)=NO1 [Example 26D],7.30 to 8.00
15,C[C@]1(Cc2ccccc2)CC(c2ccc3c(=O)n(-c4ccc(F)cc4)c(CCCCC(=O)O)nc3c2)=NO1 [Example 26E],≥ 8.00
16,C[C@@]1([C@H](O)c2ccccc2)CC(c2ccc3c(=O)n(-c4ccc(F)cc4)c(CCCCC(=O)O)nc3c2)=NO1 [Example 26F],≥ 8.00
17,C[C@]1([C@H](O)c2ccccc2)CC(c2ccc3c(=O)n(-c4ccc(F)cc4)c(CCCCC(=O)O)nc3c2)=NO1 [Example 26G],7.30 to 8.00
18,C[C@@]1([C@H](O)c2ccccc2)CC(c2ccc3c(=O)n(-c4ccccc4)c(CCCCC(=O)O)nc3c2)=NO1 [Example 26J],≥ 8.00
19,C[C@]1([C@H](O)c2ccccc2)CC(c2ccc3c(=O)n(-c4ccccc4)c(CCCCC(=O)O)nc3c2)=NO1 [Example 26K],7.30 to 8.00
20,C[C@]1(Cc2ccccc2)CC(c2ccc3c(=O)n(-c4ccccc4)c(CCCCC(=O)O)nc3c2)=NO1 [Example 26L],7.30 to 8.00
21,C[C@@]1(Cc2ccccc2)CC(c2ccc3c(=O)n(-c4ccccc4)c(CCCCC(=O)O)nc3c2)=NO1 [Example 26M],≥ 8.00
22,C[C@@]1([C@@H](O)c2ccccc2)CC(c2ccc3c(=O)n(-c4ccccc4)c(CCCCC(=O)O)nc3c2)=NO1 [Example 26i],7.30 to 8.00
23,"O=C(O)CCCCc1nc2cc(C3=NOC(c4nc5ccccc5o4)C3)ccc2c(=O)n1-c1ccc(F)cc1 (stereo not shown) [Example 28, 5-(7-(5-(benzo[d]oxazol-2-yl)-4,5-dihydroisoxazol-3-yl)-3-(4-fluorophenyl)-4-oxo-3,4-dihydroquinazolin-2-yl)pentanoic acid]",≥ 8.00
24,O=C(O)CCCCc1nc2cc(-c3cc(-c4nc5ccccc5o4)on3)ccc2c(=O)n1-c1ccc(F)cc1 [Example 29],≥ 8.00
25,O=C(O)CCCCc1nc2cc(-c3cc(-c4ccccc4)no3)ccc2c(=O)n1-c1ccc(F)cc1 [Example 32],7.30 to 8.00 and 7.66

row,Compound,pKi
1,O=C(O)CCCCc1nc2cc(-c3cc(-c4ccc5ccccc5n4)on3)ccc2c(=O)n1-c1ccc(F)cc1 [Example 33],≥ 8.00
2,"O=C(O)CCCCc1nc2cc(-c3noc(Cc4ccc(F)cc4)n3)ccc2c(=O)n1-c1ccc(F)cc1 [Example 36, 5-(7-(5-(4-fluorobenzyl)-1,2,4-oxadiazol-3-yl)-3-(4-fluorophenyl)-4-oxo-3,4-dihydroquinazolin-2-yl)pentanoic acid]",≥ 8.00
3,"O=C(O)CCCCc1nc2cc(C3=NOC[C@@H](c4ccc(F)cc4)N3)ccc2c(=O)n1-c1ccc(F)cc1 [Example 37, (R)-5-(3-(4-fluorophenyl)-7-(5-(4-fluorophenyl)-5,6-dihydro-4H-1,2,4-oxadiazin-3-yl)-4-oxo-3,4-dihydroquinazolin-2-yl)pentanoic acid]",≥ 8.00
4,O=C(O)CCCCc1nc2cc(C3=NOC[C@H](c4ccc(F)cc4)N3)ccc2c(=O)n1-c1ccc(F)cc1 [Example 37E],≥ 8.00
5,"O=C(O)CCCCc1nc2cc(-c3cc(CSc4nc5cc(OC(F)F)ccc5[nH]4)on3)ccc2c(=O)n1-c1ccc(F)cc1 [Example 39, 5-(7-(5-((5-(difluoromethoxy)-1H-benzo[d]imidazol-2-ylthio)methyl)isoxazol-3-yl)-3-(4-fluorophenyl)-4-oxo-3,4-dihydroquinazolin-2-yl)pentanoic acid]",7.30 to 8.00
6,"O=C(O)CCCCc1nc2cc(-c3cc(CS(=O)(=O)c4nc5cc(OC(F)F)ccc5[nH]4)on3)ccc2c(=O)n1-c1ccc(F)cc1 [Example 39E, 5-(7-(5-((5-(difluoromethoxy)-1H-benzo[d]imidazol-2-ylsulfonyl)methyl)isoxazol-3-yl)-3-(4-fluorophenyl)-4-oxo-3,4-dihydroquinazolin-2-yl)pentanoic acid]",7.30 to 8.00
7,O=C(O)CCCCc1nc2cc(-c3cc(CSc4ccc(F)cc4)on3)ccc2c(=O)n1-c1ccc(F)cc1 [Example 39F],≥ 8.00
8,O=C(O)CCCCc1nc2cc(-c3cc(CSc4ccccn4)on3)ccc2c(=O)n1-c1ccc(F)cc1 [Example 39G],7.30 to 8.00
9,COc1ccc2[nH]c(SCc3cc(-c4ccc5c(=O)n(-c6ccc(F)cc6)c(CCCCC(=O)O)nc5c4)no3)nc2c1 [Example 39H],7.30 to 8.00
10,O=C(O)CCCCc1nc2cc(-c3cc(CS(=O)(=O)c4ccccn4)on3)ccc2c(=O)n1-c1ccc(F)cc1 [Example 39I],7.30 to 8.00
11,COc1ccc2[nH]c(S(=O)(=O)Cc3cc(-c4ccc5c(=O)n(-c6ccc(F)cc6)c(CCCCC(=O)O)nc5c4)no3)nc2c1 [Example 39J],≥ 8.00
12,O=C(O)CCCCc1nc2cc(-c3cc(CSc4nc5ccccc5[nH]4)on3)ccc2c(=O)n1-c1ccc(F)cc1 [Example 39K],≥ 8.00
13,O=C(O)CCCCc1nc2cc(-c3cc(CS(=O)(=O)c4nc5ccccc5[nH]4)on3)ccc2c(=O)n1-c1ccc(F)cc1 [Example 39L],≥ 8.00
14,"O=C(O)CCCCc1nc2cc(-c3cc(C[S+]([O-])c4nc5ccccc5[nH]4)on3)ccc2c(=O)n1-c1ccc(F)cc1 (stereo not shown) [Example 40, 5-(7-(5-((1H-benzo[d]imidazol-2-ylsulfinyl)methyl)isoxazol-3-yl)-3-(4-fluorophenyl)-4-oxo-3,4-dihydroquinazolin-2-yl)pentanoic acid]",7.30 to 8.00
15,CCC1(c2ccccc2)CC(c2ccc3c(=O)n(-c4ccc(F)cc4)c(CCCCC(=O)O)nc3c2)=NO1 (stereo not shown) [Example 41],≥ 8.00
16,"CC[C@H](c1ccc(F)cc1)c1cc(-c2ccc3c(=O)n(-c4ccc(F)cc4)c(CCCCC(=O)O)nc3c2)no1 [Example 43, (R)-5-(3-(4-fluorophenyl)-7-(5-(1-(4-fluorophenyl)propyl)isoxazol-3-yl)-4-oxo-3,4-dihydroquinazolin-2-yl)pentanoic acid]",≥ 8.00
17,CC[C@@H](c1ccc(F)cc1)c1cc(-c2ccc3c(=O)n(-c4ccc(F)cc4)c(CCCCC(=O)O)nc3c2)no1 [Example 43D],≥ 8.00
18,C[C@@H](OCc1ccc(F)cc1)c1cc(-c2ccc3c(=O)n(-c4ccc(F)cc4)c(CCCCC(=O)O)nc3c2)no1 [Example 44],7.30 to 8.00 and 7.49
19,O=C(O)CCCCc1nc2cc(-c3cc(Cc4ccccc4)on3)ccc2c(=O)n1-c1ccc(F)cc1 [Example 100],≥ 8.00
20,O=C(O)CCCCc1nc2cc(-c3cc([C@@H](O)c4ccccc4)on3)ccc2c(=O)n1-c1ccc(F)cc1 [Example 101],≥ 8.00
21,O=C(O)CCCCc1nc2cc(-c3cc([C@H](O)c4ccccc4)on3)ccc2c(=O)n1-c1ccc(F)cc1 [Example 102],≥ 8.00
22,Cc1ccccc1-c1cc(-c2ccc3c(=O)n(-c4ccc(F)cc4)c(CCCCC(=O)O)nc3c2)no1 [Example 103],≥ 8.00
23,O=C(O)CCCCc1nc2cc(-c3noc(-c4ccc(C(F)(F)F)cc4)n3)ccc2c(=O)n1-c1ccc(F)cc1 [Example 104],7.30 to 8.00
24,O=C(O)CCCCc1nc2cc(-c3cn(-c4ccc(F)cc4)nn3)ccc2c(=O)n1-c1ccc(F)cc1 [Example 105],≥ 8.00
